Patent US20110165277A1, “Biological Materials and Uses Thereof” (priority 2008, published 2011)
Values joined by “and” are separate entries in the source; they are usually repeats but may differ in a detail not shown here. Equal entries are not always repeated.

Assays:
Listeria monocytogenes = assay: Listeria survival in Rusitec (Example 5); format: cell-based; details: 100 μg/ml; 24h after pathogen addition
Procedure: Volatile fatty acids, methane and bacterial numbers were measured on days 18 and 19 of the experiment. On day 19, Listeria inocula was added and it numbers traced over the last 24 hr of the experiment.

[1] = Further sandalwood analogues: volatile fatty acid and methane production (Example 7, Table 14); format: cell-based
Procedure: (§1) Further testing of sandalwood analogues was conducted following the protocols described in Examples 3 and 5.

rumen fluid = assay: Methane production by buffered rumen fluid, sandalwood oil and synthetic replacements (Example 4); format: cell-based, cow; details: 5, 50 or 100 or 500 pg/ml; 16 hours
Procedure: Thirty ml of a 33% buffered solution of rumen fluid withdrawn from a rumen canulated cow was incubated with 0.3 g of a 50:50 hay barley mix at 39° C. under anaerobic conditions
After 16 hours the volume of gas produced and the percentage of methane in the headspace was measured and the resultant fermentation fluid was analysed for volatile fatty acids by HPLC.
Sandalwood oil from either Fluka or SAFC and two different batches of Javanol (Givaudan) or a single batch of Santaliff (International Flavors & Fragrances) (both Javanol and Santaliff are artifical Sandalwood replacements) were added in the amount of 5, 50 or 100 or 500 pg/ml to the 30 ml buffered solution of rumen fluid prior to incubation.

[2] = Further sandalwood analogues: CH4 per bottle, compound in DMSO or ETOH (Example 7, Table 15); format: cell-based; details: for CH4: single bottles rep a, b, c, listed as Javanol batch no. 9000699712
Procedure: as §1

[3] = tested on: rumen contents in Rusitec; assay: Rusitec with Sandalwood oil and Javanol (Example 5); format: cell-based, cattle; details: 100 μg/ml
Procedure: The rumen-simulation technique (Rusitec) was used as described by Czerkawski and Breckenridge (1977). The nominal volume in each reaction vessel was 850 ml and the dilution rate was set at 0.88 per day, the infused liquid being artificial saliva (McDougall, Biochem J 1948 43, 99-109) at pH 8.4. Inocula for the fermentation vessels were obtained from a pooled sample (liquid and particulate rumen contents) from three rumen-cannulated cattle fed on a conserved diet. On the first day of the experiment 300 ml of strained rumen fluid, 300 ml of water and 300 ml of artificial saliva were placed in each reaction vessel. Solid rumen contents (80 g) were weighed into a nylon bag and one of these was placed inside the food container in each vessel together with a bag (20 g/d) of a basal diet of grass hay, barley, molasses, soyabean meal and a vitamin and mineral mixture. The food was provided in nylon bags, pore size 50 μm, which were gently agitated in the liquid phase. Two bags were present at any time and one bag was replaced each day to give a 48 h incubation. The bags that were removed from the vessels were placed in plastic bags, and their contents washed and squeezed with 40 ml of artificial saliva. This was done twice for each bag, and the combined washings were poured back into the reaction vessels. Fermentation vessels were flushed with anaerobic grade CO2 before filling, after filling, and then every day during feeding (when the nylon bags with the food were changed). The duration of the experiment was 19 days, during which four vessels received Sandalwood oil (added the basal diet to reach an initial concentration of 100 μg/ml) four vessels received Javanol (added the basal diet to reach an initial concentration of 100 μg/ml) the remaining vessels were controls. Volatile fatty acids, methane and bacterial numbers were measured on days 18 and 19 of the experiment. On day 19, Listeria inocula was added and it numbers traced over the last 24 hr of the experiment.

Structure (SMILES): CC1(CO)CC1CC1CC2CC2(C)C1(C)C (stereo not shown) [Javanol, (1-Methyl-2-(1,2,2-trimethylbicyclo[3.1.0]hex-3-ylmethyl)cyclopropyl)methanol]
- Listeria monocytogenes survival (Listeria monocytogenes): not
- Acetate ([1]; 5 μg/ml): 2401 μmol/g of feed added
- Butyrate ([1]; 5 μg/ml): 538 μmol/g of feed added
- Methane ([1]; 5 μg/ml): 978 μmol/g of feed added
- Propionate ([1]; 5 μg/ml): 493 μmol/g of feed added
- TVFA ([1]; 5 μg/ml): 3432 μmol/g of feed added
- Acetate ([1]; 50 μg/ml): 2622 μmol/g of feed added
- Butyrate ([1]; 50 μg/ml): 593 μmol/g of feed added
- Methane ([1]; 50 μg/ml): 904 μmol/g of feed added
- Propionate ([1]; 50 μg/ml): 524 μmol/g of feed added
- TVFA ([1]; 50 μg/ml): 3739 μmol/g of feed added
- Acetate ([1]; 100 μg/ml): 2504 μmol/g of feed added
- Butyrate ([1]; 100 μg/ml): 499 μmol/g of feed added
- Methane ([1]; 100 μg/ml): 859 μmol/g of feed added
- Propionate ([1]; 100 μg/ml): 542 μmol/g of feed added
- TVFA ([1]; 100 μg/ml): 3545 μmol/g of feed added
- Acetate ([1]; 500 μg/ml): 2045 μmol/g of feed added
- Butyrate ([1]; 500 μg/ml): 229 μmol/g of feed added
- Methane ([1]; 500 μg/ml): 744 μmol/g of feed added
- Propionate ([1]; 500 μg/ml): 833 μmol/g of feed added
- TVFA ([1]; 500 μg/ml): 3107 μmol/g of feed added
- methane compared to the control experiments (rumen fluid): significantly decreased
- CH4 (mean of rep a-c) ([2]; 150 ug/30 ml in 200 ul DMSO): 913.6635 µmol/g
- CH4 ([2]; 150 ug/30 ml in 200 ul DMSO): 956.9591 µmol/g and 888.4071 µmol/g and 895.6242 µmol/g
- CH4 (mean of rep a-c) ([2]; 150 ug/30 ml in 200 ul ETOH): 1373.522 µmol/g
- CH4 ([2]; 150 ug/30 ml in 200 ul ETOH): 1403.051 µmol/g and 1381.609 µmol/g and 1335.905 µmol/g
- CH4 (mean of rep a-c) ([2]; 15000 ug/30 ml in 200 ul DMSO): 605.2838 µmol/g
- CH4 ([2]; 15000 ug/30 ml in 200 ul DMSO): 647.283 µmol/g and 563.0216 µmol/g and 605.5467 µmol/g
- CH4 (mean of rep a-c) ([2]; 15000 ug/30 ml in 200 ul ETOH): 1158.255 µmol/g
- CH4 ([2]; 15000 ug/30 ml in 200 ul ETOH): 1145.346 µmol/g and 1230.103 µmol/g and 1099.314 µmol/g
- 48 h DM degradation (%) [3]: 33.6%
- Acetate [3]: 23.9 mmol/day
- Bacteria counts Cellulolytic [3]: 1.9e+06 mL⁻¹
- Bacteria counts Total [3]: 4.9e+09 mL⁻¹
- Butyrate [3]: 4.4 mmol/day
- Methane production [3]: decreased
- Propionate [3]: 16.7 mmol/day
- Total VFA [3]: 45.0 mmol/day
- VFA production [3]: no effect
- CH4 ([3]; days 18 and 19): 2.51 mmol/day
